Assay [1] concerns CCL17 secretion in peripheral human whole blood. Briefly: Human Whole Blood (HWB) CCL17 TR-FRET Assay (IL-13 stimulated CCL17 secretion). The format is cell-based. The following applies: Homo sapiens, 48 h, human whole blood, IL-13 stimulated. An outline of the steps:
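Heparinized peripheral human whole blood was preincubated with compound (11-point, 3-fold series, duplicate) for 2 h at 37 °C, then stimulated with IL-13 at 10 ng/mL final for 48 h at 37 °C. Secreted CCL17 in the serum was quantified by TR-FRET sandwich immunoassay (665/615 nm ratio, 16 h RT); IC50 derived.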
(In general: Time-resolved FRET reads energy transfer from a long-lived donor to a nearby acceptor.)

Assay [2] has as its target T1, STAT6 (Homo sapiens, UniProt P42226).
T1 construct: stably transfected HaCaT keratinocyte cell line, which expresses NanoLuc luciferase reporter gene under the transcriptional control of the STAT6 responsive promoter; endogenous in cells; host or cells: HaCaT keratinocyte reporter cell line (stably transfected with a NanoLuc reporter)
T1 sequence (P42226 1-847): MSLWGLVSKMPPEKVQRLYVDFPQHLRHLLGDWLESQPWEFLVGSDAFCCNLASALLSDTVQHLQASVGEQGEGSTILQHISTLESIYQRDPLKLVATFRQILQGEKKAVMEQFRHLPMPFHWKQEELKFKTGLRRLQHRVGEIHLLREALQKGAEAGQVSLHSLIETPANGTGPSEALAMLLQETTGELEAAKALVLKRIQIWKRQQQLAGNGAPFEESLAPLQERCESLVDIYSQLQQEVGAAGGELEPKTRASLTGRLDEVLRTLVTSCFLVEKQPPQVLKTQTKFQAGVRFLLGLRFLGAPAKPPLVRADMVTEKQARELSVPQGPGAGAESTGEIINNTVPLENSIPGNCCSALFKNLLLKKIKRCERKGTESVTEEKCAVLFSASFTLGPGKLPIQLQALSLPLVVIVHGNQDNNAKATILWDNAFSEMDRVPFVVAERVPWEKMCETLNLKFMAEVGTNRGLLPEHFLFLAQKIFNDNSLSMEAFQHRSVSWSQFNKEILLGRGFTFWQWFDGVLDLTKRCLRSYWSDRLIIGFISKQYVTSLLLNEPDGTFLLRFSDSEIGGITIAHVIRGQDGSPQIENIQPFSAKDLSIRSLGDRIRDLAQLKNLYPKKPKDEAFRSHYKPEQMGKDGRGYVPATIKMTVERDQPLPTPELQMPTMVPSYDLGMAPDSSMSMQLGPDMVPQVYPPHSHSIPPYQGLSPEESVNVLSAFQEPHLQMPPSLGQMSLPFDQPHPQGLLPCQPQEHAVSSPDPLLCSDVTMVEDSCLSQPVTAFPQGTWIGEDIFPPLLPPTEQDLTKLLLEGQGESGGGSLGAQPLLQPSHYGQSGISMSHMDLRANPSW
Briefly: STAT6 Reporter Luciferase Assay (IL-13 stimulated HaCaT keratinocyte NanoLuc reporter cells). The conditions noted are these: IL-13 stimulated HaCaT STAT6 NanoLuc reporter cells; read-out: Reporter EC50. The format is cell-based. Put shortly: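 Compounds were tested as 11-point, 4-fold series in duplicate, applied for 2 h at 37 °C in low-serum (2% FBS) DMEM. The cells were a stable HaCaT line with NanoLuc under a STAT6-responsive IL-13Ra2 promoter. After 4 h with 0.12 nM IL-13, Nano-Glo luminescence was measured.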

Each structure is given as a SMILES string.

In assay [1], `CC(C)n1nc(C(=O)NCc2ccc(C(N)=O)cc2)c2c1[C@@H](C)CN(c1ncc(N3CCCC3=O)cn1)C2` [Example 489, (S)-N-(4-carbamoylbenzyl)-1-isopropyl-7-methyl-5-(5-(2-oxopyrrolidin-1-yl)pyrimidin-2-yl)-4,5,6,7-tetrahydro-1H-pyrazolo[4,3-c]pyridine-3-carboxamide] came in with an IC50 of 17 nM. Besides, the EC50 in assay [2] worked out at 18 nM.

Consider `CNC(=O)c1ccc(CNC(=O)c2nn(C(C)C)c3c2CN(c2ncc(N4CCCC4=O)cn2)C[C@@H]3C)cc1` [Example 490, (S)-1-isopropyl-7-methyl-N-(4-(methylcarbamoyl)benzyl)-5-(5-(2-oxopyrrolidin-1-yl)pyrimidin-2-yl)-4,5,6,7-tetrahydro-1H-pyrazolo[4,3-c]pyridine-3-carboxamide], for which the IC50 in assay [1] turned out to be 50 nM. For the same molecule, the EC50 in assay [2] is 13 nM.

In assay [1], `CC(C)n1nc(C(=O)NCc2ccc(N)cc2)c2c1[C@@H](C)CN(c1ncc(C(=O)N(C)C)cn1)C2` [Example 491, (S)-N-(4-aminobenzyl)-5-(5-(dimethylcarbamoyl)pyrimidin-2-yl)-1-isopropyl-7-methyl-4,5,6,7-tetrahydro-1H-pyrazolo[4,3-c]pyridine-3-carboxamide] came in with an IC50 of 34 nM. Moreover, the EC50 in assay [2] amounted to 7 nM.

As for `CC(C)n1nc(C(=O)NCc2ccc(NC(=O)NCc3ccc(NC(=O)N(C)C)cc3)cc2)c2c1[C@@H](C)CN(c1ncc(C(=O)N(C)C)cn1)C2` [Example 492, (S)-5-(5-(dimethylcarbamoyl)pyrimidin-2-yl)-N-(4-(3-(4-(3,3-dimethylureido)benzyl)ureido)benzyl)-1-isopropyl-7-methyl-4,5,6,7-tetrahydro-1H-pyrazolo[4,3-c]pyridine-3-carboxamide], it took 4 nM to reach half-maximal inhibition in assay [1] (IC50). The EC50 in assay [2] is 0.5 nM.

`CCn1nc(C(=O)NCc2ccc(NC(=O)N(C)C)cc2)c2c1[C@@H](C)CN(c1ncc(C(=O)N3Cc4cccnc4C3)cn1)C2` [Example 495, (S)-5-(5-(6,7-dihydro-5H-pyrrolo[3,4-b]pyridine-6-carbonyl)pyrimidin-2-yl)-N-(4-(3,3-dimethylureido)benzyl)-1-ethyl-7-methyl-4,5,6,7-tetrahydro-1H-pyrazolo[4,3-c]pyridine-3-carboxamide] yielded an IC50 in assay [1] of 34 nM. Also, the EC50 in assay [2] was 1 nM.

`CNC(=O)c1ccc(CNC(=O)c2nn(C(C)C)c3c2CN(c2ncc(C(=O)N4Cc5cccnc5C4)cn2)C[C@@H]3C)cc1` [Example 496, (S)-5-(5-(6,7-dihydro-5H-pyrrolo[3,4-b]pyridine-6-carbonyl)pyrimidin-2-yl)-1-isopropyl-7-methyl-N-(4-(methylcarbamoyl)benzyl)-4,5,6,7-tetrahydro-1H-pyrazolo[4,3-c]pyridine-3-carboxamide]: the IC50 in assay [1] came to 16 nM. The EC50 in assay [2] was determined as 4 nM.

As to `CCOC(=O)Nc1ccc(CNC(=O)c2nn(C(C)C)c3c2CN(c2ccc(C(=O)N(C)C)cn2)C[C@@H]3C)cc1` [Example 497, ethyl (S)-(4-((5-(5-(dimethylcarbamoyl)pyridin-2-yl)-1-isopropyl-7-methyl-4,5,6,7-tetrahydro-1H-pyrazolo[4,3-c]pyridine-3-carboxamido)methyl)phenyl)carbamate], half-maximal inhibition in assay [1] (IC50) required 16 nM. Besides, in assay [2], the EC50 is 1 nM.

`CC(C)n1nc(C(=O)NCc2ccc(NC(=O)N(C)C)cc2)c2c1[C@@H](C)CN(c1ncc(C(=O)O)cn1)C2` [Example 498, (S)-2-(3-((4-(3,3-Dimethylureido)benzyl)carbamoyl)-1-isopropyl-7-methyl-1,4,6,7-tetrahydro-5H-pyrazolo[4,3-c]pyridin-5-yl)pyrimidine-5-carboxylic acid] gave an IC50 in assay [1] of 3440 nM. The EC50 in assay [2] turned out to be 133 nM.

In turn, `CC(C)n1nc(C(=O)NCc2ccc(NC(=O)NCc3ccc(NC(=O)N(C)C)cc3)cc2)c2c1[C@@H](C)CN(c1ccc(C(=O)N(C)C)cn1)C2` [Example 499, (S)-5-(5-(dimethylcarbamoyl)pyridin-2-yl)-N-(4-(3-(4-(3,3-dimethylureido)benzyl)ureido)benzyl)-1-isopropyl-7-methyl-4,5,6,7-tetrahydro-1H-pyrazolo[4,3-c]pyridine-3-carboxamide] registered an IC50 in assay [1] of 6 nM. Moreover, the 50% effective concentration (EC50) in assay [2] is 0.3 nM.

Consider `CC(C)n1nc(C(=O)NCc2ccc(NC(=O)N(C)C)cc2)c2c1[C@@H](C)CN(c1ncc(C(=O)NCc3ccc(NC(=O)N(C)C)cc3)cn1)C2` [Example 500, (S)-N-(4-(3,3-dimethylureido)benzyl)-5-(5-((4-(3,3-dimethylureido)benzyl)carbamoyl)pyrimidin-2-yl)-1-isopropyl-7-methyl-4,5,6,7-tetrahydro-1H-pyrazolo[4,3-c]pyridine-3-carboxamide], for which the IC50 in assay [1] was 104 nM. The EC50 in assay [2] turned out to be 11 nM.

In turn, `CC(C)n1nc(C(=O)NCc2ccc(NC(=O)N(C)C)cc2)c2c1[C@@H](C)CN(c1ccc(C(=O)NCc3ccc(NC(=O)N(C)C)cc3)cn1)C2` [Example 501, (S)-N-(4-(3,3-dimethylureido)benzyl)-5-(5-((4-(3,3-dimethylureido)benzyl)carbamoyl)pyridin-2-yl)-1-isopropyl-7-methyl-4,5,6,7-tetrahydro-1H-pyrazolo[4,3-c]pyridine-3-carboxamide] returned an IC50 in assay [1] of 50 nM. For the same molecule, the EC50 in assay [2] worked out at 7 nM.

With `C[C@H]1CN(c2ncc(-c3nccn3C)cn2)Cc2c(C(=O)NCc3ccc(NC(=O)N(C)C)cc3)nn(C)c21` [Example 502, (S)-N-(4-(3,3-dimethylureido)benzyl)-1,7-dimethyl-5-(5-(1-methyl-1H-imidazol-2-yl)pyrimidin-2-yl)-4,5,6,7-tetrahydro-1H-pyrazolo[4,3-c]pyridine-3-carboxamide], in assay [1], the IC50 is 7550 nM. The EC50 in assay [2] was 813 nM.

Molecule `CCOC(=O)Nc1ccc(CNC(=O)c2nn(C(C)C)c3c2CN(c2ncc(C(=O)N(C)C)cn2)C[C@@H]3C)cc1` [Example 503, ethyl (S)-(4-((5-(5-(dimethylcarbamoyl)pyrimidin-2-yl)-1-isopropyl-7-methyl-4,5,6,7-tetrahydro-1H-pyrazolo[4,3-c]pyridine-3-carboxamido)methyl)phenyl)carbamate] showed an IC50 in assay [1] of 13 nM. In addition, the EC50 in assay [2] worked out at 1 nM.

Molecule `CC(C)n1nc(C(=O)NCc2ccc(NC(=O)N(C)C)cc2)c2c1[C@@H](C)CN(c1ccc(C(=O)O)cn1)C2` [Example 504, (S)-6-(3-((4-(3,3-dimethylureido)benzyl)carbamoyl)-1-isopropyl-7-methyl-1,4,6,7-tetrahydro-5H-pyrazolo[4,3-c]pyridin-5-yl)nicotinic acid] came in with an IC50 in assay [1] above 21200 nM. In addition, in assay [2], the EC50 stood at 874 nM.

In the case of `CCn1nc(C(=O)NCc2ccc(NC(=O)N(C)C)cc2)c2c1CCN(c1ccc(C(=O)N(C)C)cn1)[C@H]2C` [Example 512, (S)-5-(5-(dimethylcarbamoyl)pyridin-2-yl)-N-(4-(3,3-dimethylureido)benzyl)-1-ethyl-4-methyl-4,5,6,7-tetrahydro-1H-pyrazolo[4,3-c]pyridine-3-carboxamide], in assay [1], the IC50 stood at 2510 nM. Also, in assay [2], the EC50 is 240 nM.

In assay [1], `CCn1nc(C(=O)NCc2ccc(NC(=O)N(C)C)cc2)c2c1CCN(c1ccc(C(=O)N(C)C)cn1)[C@@H]2C` [Example 513, (R)-5-(5-(dimethylcarbamoyl)pyridin-2-yl)-N-(4-(3,3-dimethylureido)benzyl)-1-ethyl-4-methyl-4,5,6,7-tetrahydro-1H-pyrazolo[4,3-c]pyridine-3-carboxamide] yielded an IC50 of 18 nM. In addition, the EC50 in assay [2] came out at 3 nM.

In assay [1], `CC(C)n1nc(C(=O)NCc2ccc(NC(N)=O)cc2)c2c1[C@@H](C)CN(c1ccc(-c3nccn3C)cn1)C2` [Example 516, (S)-1-isopropyl-7-methyl-5-(5-(1-methyl-1H-imidazol-2-yl)pyridin-2-yl)-N-(4-ureidobenzyl)-4,5,6,7-tetrahydro-1H-pyrazolo[4,3-c]pyridine-3-carboxamide] gave an IC50 of 5 nM. For the same molecule, the EC50 in assay [2] was 1 nM.

`CC(C)n1nc(C(=O)NCc2ccc(C(N)=O)cc2)c2c1[C@@H](C)CN(c1ccc(N3CCOC3=O)cn1)C2` [Example 517, (S)-N-(4-carbamoylbenzyl)-1-isopropyl-7-methyl-5-(5-(2-oxooxazolidin-3-yl)pyridin-2-yl)-4,5,6,7-tetrahydro-1H-pyrazolo[4,3-c]pyridine-3-carboxamide] returned an IC50 in assay [1] of 33 nM. Besides, the EC50 in assay [2] was 9 nM.

Usually IC50 stands for the concentration needed to halve the response being measured. One may read the EC50 as the concentration needed to bring the measured effect to its halfway point.
